These results are taken from patent US20230365537A1, “POLO LIKE KINASE 4 INHIBITORS” (ORIC Pharmaceuticals, Inc., priority 2021, published 2023).

Each structure is given as a SMILES string.

Assay [1] concerns the target human recombinant Aurora A (Homo sapiens (Human), UniProt O14965). Briefly: Aurora A Kinase Biochemical Assay (ADP-Glo). To be noted: ratio of Aurora A IC50 to PLK4 IC50 (selectivity). In general terms: ADP-Glo first removes unused ATP, then detects ADP through luciferase.
The target in assay [2] is human recombinant PLK4 (Homo sapiens (Human), UniProt O00444). Description: PLK4 Biochemical Assay (ADP-Glo). The settings on record: 0.5 nM PLK4, 8.0 µM ATP, 4.7 µM MBP, 6 hours at RT. In short, it runs like this:
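Recombinant human PLK4 (added at 1.0 nM) was preincubated 15 min at RT with compound in 50 mM HEPES pH 7.5, 10 mM MgCl2, 1 mM EGTA, 1 mM DTT, 0.01% Brij-35, 0.01% BSA. ADP formed was detected by ADP-Glo luminescence (40 min ATP depletion, 30 min detection). IC50 came from a four-parameter fit.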

In assay [3] the target is human recombinant Aurora B (Homo sapiens (Human), UniProt Q96GD4). Briefly: Aurora B Kinase Biochemical Assay (ADP-Glo). To be noted: ratio of Aurora B IC50 to PLK4 IC50 (selectivity). The procedure, abridged: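 Recombinant human Aurora B (20 nM in pH 7.5 HEPES buffer with MgCl2, EGTA, DTT, Brij-35, BSA) preincubated with compound 15 min at RT. ADP formed quantified by ADP-Glo luminescence after ATP depletion (40 min) and detection (30 min). IC50 from four-parameter non-linear regression.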

In assay [4] the test system is CHP-134 cells. Briefly: CHP134 CellTiter-Glo (CTG) Assay. The format is cell-based. To be noted: Homo sapiens, CHP-134, 120 h, 5 days, viable cells by CellTiter-Glo. The procedure, abridged:
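CHP-134 cells seeded at 200 cells/well for 16 h, then given nine 1:3 serial dilutions in quadruplicate at 37° C, 5% CO2. Viable cells measured by CellTiter-Glo luminescence after 5 days; IC50 calculated from curves.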

Chain of human recombinant Aurora A (O14965 whole entry): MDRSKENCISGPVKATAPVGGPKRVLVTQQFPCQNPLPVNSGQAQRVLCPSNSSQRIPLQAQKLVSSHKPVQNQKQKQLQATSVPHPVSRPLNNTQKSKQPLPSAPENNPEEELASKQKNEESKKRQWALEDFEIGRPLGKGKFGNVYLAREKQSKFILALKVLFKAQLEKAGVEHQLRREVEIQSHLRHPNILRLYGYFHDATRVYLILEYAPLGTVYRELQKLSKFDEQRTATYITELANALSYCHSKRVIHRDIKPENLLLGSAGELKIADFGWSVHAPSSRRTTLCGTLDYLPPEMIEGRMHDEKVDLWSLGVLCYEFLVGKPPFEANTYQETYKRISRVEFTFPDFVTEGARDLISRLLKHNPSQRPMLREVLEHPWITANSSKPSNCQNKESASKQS
Chain of human recombinant PLK4 (O00444 whole entry): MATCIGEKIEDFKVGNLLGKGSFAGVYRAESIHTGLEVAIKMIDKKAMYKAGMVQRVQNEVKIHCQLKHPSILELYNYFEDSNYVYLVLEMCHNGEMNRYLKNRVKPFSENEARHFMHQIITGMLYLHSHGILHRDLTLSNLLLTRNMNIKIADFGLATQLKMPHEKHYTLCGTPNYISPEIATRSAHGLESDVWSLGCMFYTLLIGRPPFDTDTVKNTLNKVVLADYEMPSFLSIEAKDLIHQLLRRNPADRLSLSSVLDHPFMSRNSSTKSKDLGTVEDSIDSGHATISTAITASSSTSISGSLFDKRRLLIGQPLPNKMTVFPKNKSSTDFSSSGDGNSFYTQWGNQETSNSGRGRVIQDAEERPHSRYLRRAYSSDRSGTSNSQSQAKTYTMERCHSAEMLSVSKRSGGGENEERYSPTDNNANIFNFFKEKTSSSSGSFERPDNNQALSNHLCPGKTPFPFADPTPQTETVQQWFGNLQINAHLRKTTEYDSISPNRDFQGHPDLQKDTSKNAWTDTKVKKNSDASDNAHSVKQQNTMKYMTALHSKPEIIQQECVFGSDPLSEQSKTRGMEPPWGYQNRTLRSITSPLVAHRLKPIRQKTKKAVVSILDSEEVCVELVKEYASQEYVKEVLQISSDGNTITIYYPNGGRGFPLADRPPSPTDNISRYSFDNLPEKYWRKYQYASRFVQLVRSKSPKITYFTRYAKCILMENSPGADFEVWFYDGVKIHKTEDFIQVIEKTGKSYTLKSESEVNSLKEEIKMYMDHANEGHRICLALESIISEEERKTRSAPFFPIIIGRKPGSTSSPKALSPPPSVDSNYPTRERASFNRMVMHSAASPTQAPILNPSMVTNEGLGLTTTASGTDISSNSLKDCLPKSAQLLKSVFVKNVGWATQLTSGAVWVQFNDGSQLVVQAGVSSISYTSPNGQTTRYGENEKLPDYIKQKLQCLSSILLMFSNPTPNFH
Chain of human recombinant Aurora B (Q96GD4 whole entry): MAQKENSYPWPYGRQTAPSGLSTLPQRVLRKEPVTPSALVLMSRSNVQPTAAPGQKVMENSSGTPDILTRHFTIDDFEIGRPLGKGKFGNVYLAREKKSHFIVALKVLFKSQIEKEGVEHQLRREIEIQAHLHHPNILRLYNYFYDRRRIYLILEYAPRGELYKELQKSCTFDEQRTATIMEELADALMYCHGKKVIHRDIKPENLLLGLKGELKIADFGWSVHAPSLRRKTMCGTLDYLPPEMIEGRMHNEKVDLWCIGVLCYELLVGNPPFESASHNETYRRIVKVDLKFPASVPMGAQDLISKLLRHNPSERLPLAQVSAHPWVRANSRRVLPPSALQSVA

A word on the IC50: it is the concentration that inhibits the measured activity by half. In the case of `COc1ccc2c(c1)[C@]1(C[C@H]1c1ccc3c(Nc4ccc(C(=O)N5C6CCC5COC6)nc4OC)n[nH]c3c1)C(=O)N2` [Example 232, (1R,2S)-5′-methoxy-2-(3-{[2-methoxy-6-(3-oxa-8-azabicyclo[3.2.1]octane-8-carbonyl)pyridin-3-yl]amino}-1H-indazol-6-yl)spiro[cyclopropane-1,3′-indol]-2′(1′H)-one], in assay [1], the “[Aurora A IC50 (nM)]/[PLK4 IC50 (nM)]” value is listed as 651.7909. Further, the results for the 50% inhibitory concentration (IC50) in assay [2] and in assay [4] were 1.03 nM and 141 nM, respectively. In assay [3], the “[Aurora B IC50 (nM)]/[PLK4 IC50 (nM)]” value came to 105.5179.

Consider `COc1ccc2c(c1)[C@]1(C[C@H]1c1ccc3c(Nc4nn(C)c(=O)cc4OC)n[nH]c3c1)C(=O)N2` [Example 233, (1R,2S)-5′-methoxy-2-{3-[(4-methoxy-1-methyl-6-oxo-1,6-dihydropyridazin-3-yl)amino]-1H-indazol-6-yl)spiro[cyclopropane-1,3′-indol]-2′(1′H)-one], for which the “[Aurora A IC50 (nM)]/[PLK4 IC50 (nM)]” value in assay [1] turned out to be 332.3068. The IC50 in assay [2] amounted to 3.57 nM; in assay [4], 4800 nM. Further, the “[Aurora B IC50 (nM)]/[PLK4 IC50 (nM)]” value in assay [3] is 107.2788.

On to `COc1ccc2c(c1)[C@]1(C[C@H]1c1ccc3c(Nc4cc(-c5ncco5)cnc4OC)n[nH]c3c1)C(=O)N2` [Example 234, (1R,2S)-5′-Methoxy-2-(3-{[2-methoxy-5-(1,3-oxazol-2-yl)pyridin-3-yl]amino}-1H-indazol-6-yl)spiro[cyclopropane-1,3′-indol]-2′(1′H)-one], for which the “[Aurora A IC50 (nM)]/[PLK4 IC50 (nM)]” value in assay [1] worked out at 608.9799. Also, the results for the IC50 in assay [2] and in assay [4] were 2.29 nM and 276 nM, respectively. For the same compound, the “[Aurora B IC50 (nM)]/[PLK4 IC50 (nM)]” value in assay [3] is 831.7349.

`COc1ccc2c(c1)[C@]1(C[C@H]1c1ccc3c(Nc4cc(C)c(C(=O)N(C)C)nc4OC)n[nH]c3c1)C(=O)N2` [Example 238, 6-methoxy-5-({6-[(1R,2S)-5′-methoxy-2′-oxo-1′,2′-dihydrospiro[cyclopropane-1,3′-indol]-2-yl]-1H-indazol-3-yl}amino)-N,N,3-trimethylpyridine-2-carboxamide]: the “[Aurora A IC50 (nM)]/[PLK4 IC50 (nM)]” value in assay [1] was 536.1. For the same compound, the concentration for half-maximal inhibition (IC50) in assay [2] worked out at 1.36 nM; in assay [4], 133 nM. Besides, the “[Aurora B IC50 (nM)]/[PLK4 IC50 (nM)]” value in assay [3] stood at 582.2189.

Consider `COc1ccc2c(c1)[C@]1(C[C@H]1c1ccc3c(Nc4cnc(S(C)(=O)=O)cc4OC)n[nH]c3c1)C(=O)N2` [Example 241, (1R,2S)-2-(3-{[6-(methanesulfonyl)-4-methoxypyridin-3-yl]amino}-1H-indazol-6-yl)-5′-methoxyspiro[cyclopropane-1,3′-indol]-2′(1′H)-one], for which, in assay [1], the “[Aurora A IC50 (nM)]/[PLK4 IC50 (nM)]” value amounted to 2066.9875. The concentration for half-maximal inhibition (IC50) in assay [2] came out at 2.49 nM; in assay [4], 1100 nM. Besides, in assay [3], the “[Aurora B IC50 (nM)]/[PLK4 IC50 (nM)]” value is recorded as 253.4697.

`COc1ccc2c(c1)[C@]1(C[C@H]1c1ccc3c(Nc4ncc(S(C)(=O)=O)nc4OC)n[nH]c3c1)C(=O)N2` [Example 242, (1R,2S)-2-(3-{[5-(methanesulfonyl)-3-methoxypyrazin-2-yl]amino}-1H-indazol-6-yl)-5′-methoxyspiro[cyclopropane-1,3′-indol]-2′(1′H)-one]: the “[Aurora A IC50 (nM)]/[PLK4 IC50 (nM)]” value in assay [1] is 307.7159. Besides, the half-inhibitory concentration (IC50) came to 6.52 nM in assay [2] and 5510 nM in assay [4]. Moreover, the “[Aurora B IC50 (nM)]/[PLK4 IC50 (nM)]” value in assay [3] was found to be 129.0381.

Take `COc1ccc2c(c1)[C@]1(C[C@H]1c1ccc3c(Nc4ccc(C(=O)N(C5CC5)C5CC5)nc4OC)n[nH]c3c1)C(=O)N2` [Example 243, N,N-dicyclopropyl-6-methoxy-5-({6-[(1R,2S)-5′-methoxy-2′-oxo-1′,2′-dihydrospiro[cyclopropane-1,3′-indol]-2-yl]-1H-indazol-3-yl}amino)pyridine-2-carboxamide]: the “[Aurora A IC50 (nM)]/[PLK4 IC50 (nM)]” value in assay [1] is reported as 479.1122. Besides, the IC50 amounted to 1.15 nM in assay [2] and 188 nM in assay [4]. Further, the “[Aurora B IC50 (nM)]/[PLK4 IC50 (nM)]” value in assay [3] is on record as 164.5778.

`COc1ccc2c(c1)[C@]1(C[C@H]1c1ccc3c(Nc4ccc(C(=O)NCC(F)F)nc4OC)n[nH]c3c1)C(=O)N2` [Example 244, N-(2,2-difluoroethyl)-6-methoxy-5-({6-[(1R,2S)-5′-methoxy-2′-oxo-1′,2′-dihydrospiro[cyclopropane-1,3′-indol]-2-yl]-1H-indazol-3-yl}amino)pyridine-2-carboxamide]: the “[Aurora A IC50 (nM)]/[PLK4 IC50 (nM)]” value in assay [1] is on record as 1578.3505. For the same compound, the IC50 in assay [2] amounted to 2.91 nM; in assay [4], 545 nM. Further, in assay [3], the “[Aurora B IC50 (nM)]/[PLK4 IC50 (nM)]” value is 312.3.

In the case of `COc1ccc2c(c1)[C@]1(C[C@H]1c1ccc3c(Nc4ccc(C(=O)N5[C@H](C)CCC[C@@H]5C)nc4OC)n[nH]c3c1)C(=O)N2` [Example 245, (1R,2S)-2-[3-({6-[(2R,6S)-2,6-dimethylpiperidine-1-carbonyl]-2-methoxypyridin-3-yl}amino)-1H-indazol-6-yl]-5′-methoxyspiro[cyclopropane-1,3′-indol]-2′(1′H)-one], in assay [1], the “[Aurora A IC50 (nM)]/[PLK4 IC50 (nM)]” value stood at 1730.3523. The IC50 in assay [2] was 0.738 nM; in assay [4], 131 nM. Further, the “[Aurora B IC50 (nM)]/[PLK4 IC50 (nM)]” value in assay [3] is 319.6476.

Consider `COc1ccc2c(c1)[C@]1(C[C@H]1c1ccc3c(Nc4ccc(C(=O)N5CC6CCC(C5)O6)nc4OC)n[nH]c3c1)C(=O)N2` [Example 246, (1R,2S)-5′-methoxy-2-(3-{[2-methoxy-6-(8-oxa-3-azabicyclo[3.2.1]octane-3-carbonyl)pyridin-3-yl]amino}-1H-indazol-6-yl)spiro[cyclopropane-1,3′-indol]-2′(1′H)-one], for which the “[Aurora A IC50 (nM)]/[PLK4 IC50 (nM)]” value in assay [1] worked out at 426.8090. Also, the IC50 came to 0.843 nM in assay [2] and 68.4 nM in assay [4]. The “[Aurora B IC50 (nM)]/[PLK4 IC50 (nM)]” value in assay [3] was 176.8683.

On to `COc1ccc2c(c1)[C@]1(C[C@H]1c1ccc3c(Nc4ncc(S(C)(=O)=O)cc4Cl)n[nH]c3c1)C(=O)N2` [Example 247, (1R,2S)-2-(3-{[3-chloro-5-(methanesulfonyl)pyridin-2-yl]amino}-1H-indazol-6-yl)-5′-methoxyspiro[cyclopropane-1,3′-indol]-2′(1′H)-one], for which, in assay [1], the “[Aurora A IC50 (nM)]/[PLK4 IC50 (nM)]” value is reported as 1434.9223. Also, the IC50 in assay [2] turned out to be 3.73 nM; in assay [4] it was 1010 nM. In addition, the “[Aurora B IC50 (nM)]/[PLK4 IC50 (nM)]” value in assay [3] is 423.6743.

Turning to `COc1ccc2c(c1)[C@]1(C[C@H]1c1ccc3c(Nc4ncc(S(=O)(=O)C(C)C)cc4OC)n[nH]c3c1)C(=O)N2` [Example 248, (1R,2S)-5′-Methoxy-2-(3-{[3-methoxy-5-(propane-2-sulfonyl)pyridin-2-yl]amino}-1H-indazol-6-yl)spiro[cyclopropane-1,3′-indol]-2′(1′H)-one], in assay [1], the “[Aurora A IC50 (nM)]/[PLK4 IC50 (nM)]” value is recorded as 683.4543. Also, the IC50 was 1.24 nM in assay [2] and 120 nM in assay [4]. In addition, the “[Aurora B IC50 (nM)]/[PLK4 IC50 (nM)]” value in assay [3] is reported as 206.5375.

Regarding `COc1ccc2c(c1)[C@]1(C[C@H]1c1ccc3c(Nc4ccc(C(=O)N(C)C)nc4Cl)n[nH]c3c1)C(=O)N2` [Example 251, 6-chloro-5-({6-[(1R,2S)-5′-methoxy-2′-oxo-1′,2′-dihydrospiro[cyclopropane-1,3′-indol]-2-yl]-1H-indazol-3-yl}amino)-N,N-dimethylpyridine-2-carboxamide], in assay [1], the “[Aurora A IC50 (nM)]/[PLK4 IC50 (nM)]” value amounted to 1734.2342. In addition, the IC50 was 1.33 nM in assay [2] and 287 nM in assay [4]. Further, in assay [3], the “[Aurora B IC50 (nM)]/[PLK4 IC50 (nM)]” value is on record as 268.6936.

In the case of `COc1ccc2c(c1)[C@]1(C[C@H]1c1ccc3c(Nc4ncc(C5CS(=O)(=O)C5)nc4OC)n[nH]c3c1)C(=O)N2` [Example 254, 3-[6-methoxy-5-({6-[(1R,2S)-5′-methoxy-2′-oxo-1′,2′-dihydrospiro[cyclopropane-1,3′-indol]-2-yl]-1H-indazol-3-yl}amino)pyrazin-2-yl]-1λ6-thietane-1,1-dione], the “[Aurora A IC50 (nM)]/[PLK4 IC50 (nM)]” value in assay [1] amounted to 297.6878. In addition, the IC50 in assay [2] was found to be 5.19 nM; in assay [4], 2160 nM. Moreover, the “[Aurora B IC50 (nM)]/[PLK4 IC50 (nM)]” value in assay [3] is 96.18.

`COc1ccc2c(c1)[C@]1(C[C@H]1c1ccc3c(Nc4ncc(S(=O)(=O)N5CCOCC5)cc4OC)n[nH]c3c1)C(=O)N2` [Example 255]: the “[Aurora A IC50 (nM)]/[PLK4 IC50 (nM)]” value in assay [1] amounted to 840.1202. Besides, the 50% inhibitory concentration (IC50) in assay [2] is 1.16 nM; in assay [4], 380 nM. Also, the “[Aurora B IC50 (nM)]/[PLK4 IC50 (nM)]” value in assay [3] stood at 566.4948.

Take `COc1ccc2c(c1)[C@]1(C[C@H]1c1ccc3c(Nc4ncc(S(=O)(=O)N5CC6CCC(C5)O6)cc4OC)n[nH]c3c1)C(=O)N2` [Example 256, (1R,2S)-5′-methoxy-2-(3-{[3-methoxy-5-(8-oxa-3-azabicyclo[3.2.1]octane-3-sulfonyl)pyridin-2-yl]amino}-1H-indazol-6-yl)spiro[cyclopropane-1,3′-indol]-2′(1′H)-one]: the “[Aurora A IC50 (nM)]/[PLK4 IC50 (nM)]” value in assay [1] was 1143.4287. The IC50 in assay [2] stood at 0.65 nM; in assay [4], 310 nM. In assay [3], the “[Aurora B IC50 (nM)]/[PLK4 IC50 (nM)]” value is 1153.
